Settings: human gut metagenome, 24 h, 2 µM
Also: call rule not given here.

Bacterial Biotransformation | SMILES
Compound metabolized | O=c1n(CCCN2CCN(c3cccc(Cl)c3)CC2)nc2ccccn12 [TRAZODONE]
Compound metabolized | O=C(O)CCc1nc(-c2ccccc2)c(-c2ccccc2)o1 [OXAPROZIN]
Compound metabolized | CCOC(=O)[C@H](CCc1ccccc1)N[C@@H](C)C(=O)N1[C@H](C(=O)O)C[C@@H]2CCC[C@@H]21

SMILES | Bacterial Biotransformation
CN1CCN(C2=Nc3cc(Cl)ccc3Nc3ccccc32)CC1 [CLOZAPINE] | Compound metabolized

Settings: human gut metagenome, 24 h, 2 µM
Remark: another data set of the same source

Bacterial Biotransformation | SMILES
Compound metabolized | O=c1n(CCCN2CCN(c3cccc(Cl)c3)CC2)nc2ccccn12 [TRAZODONE]
Compound NOT metabolized | O=C(O)CCc1nc(-c2ccccc2)c(-c2ccccc2)o1 [OXAPROZIN]
Compound metabolized | CCOC(=O)[C@H](CCc1ccccc1)N[C@@H](C)C(=O)N1[C@H](C(=O)O)C[C@@H]2CCC[C@@H]21

SMILES | Bacterial Biotransformation
CN1CCN(C2=Nc3cc(Cl)ccc3Nc3ccccc32)CC1 [CLOZAPINE] | Compound metabolized

Assay: (§1) The drug is tested on Z-030 corresponding to mouse gut metagenome with ENA study accession number: PRJEB37062 and ENA sample accession number: ERS12561829 for biotransformation under anaerobic condition. The drug concentrations were measured over 9 timepoints collected between 0 and 24 hours of incubation by liquid-chromatography-coupled mass spectrometry (LC–MS)
Settings: 2 µM

Bacterial Biotransformation | SMILES
Compound NOT metabolized | O=c1n(CCCN2CCN(c3cccc(Cl)c3)CC2)nc2ccccn12 [TRAZODONE]
Compound NOT metabolized | O=C(O)CCc1nc(-c2ccccc2)c(-c2ccccc2)o1 [OXAPROZIN]
Compound NOT metabolized | CCOC(=O)[C@H](CCc1ccccc1)N[C@@H](C)C(=O)N1[C@H](C(=O)O)C[C@@H]2CCC[C@@H]21

SMILES | Bacterial Biotransformation
CN1CCN(C2=Nc3cc(Cl)ccc3Nc3ccccc32)CC1 [CLOZAPINE] | Compound NOT metabolized

Settings: human gut metagenome, 24 h, 2 µM
Remark: another data set of the same source

Bacterial Biotransformation | SMILES
Compound NOT metabolized | O=c1n(CCCN2CCN(c3cccc(Cl)c3)CC2)nc2ccccn12 [TRAZODONE]
Compound metabolized | O=C(O)CCc1nc(-c2ccccc2)c(-c2ccccc2)o1 [OXAPROZIN]
Compound metabolized | CCOC(=O)[C@H](CCc1ccccc1)N[C@@H](C)C(=O)N1[C@H](C(=O)O)C[C@@H]2CCC[C@@H]21

SMILES | Bacterial Biotransformation
CN1CCN(C2=Nc3cc(Cl)ccc3Nc3ccccc32)CC1 [CLOZAPINE] | Compound NOT metabolized

Settings: human gut metagenome, 24 h, 2 µM
Remark: another data set of the same source

Bacterial Biotransformation | SMILES
Compound metabolized | O=c1n(CCCN2CCN(c3cccc(Cl)c3)CC2)nc2ccccn12 [TRAZODONE]
Compound metabolized | O=C(O)CCc1nc(-c2ccccc2)c(-c2ccccc2)o1 [OXAPROZIN]
Compound metabolized | CCOC(=O)[C@H](CCc1ccccc1)N[C@@H](C)C(=O)N1[C@H](C(=O)O)C[C@@H]2CCC[C@@H]21

SMILES | Bacterial Biotransformation
CN1CCN(C2=Nc3cc(Cl)ccc3Nc3ccccc32)CC1 [CLOZAPINE] | Compound NOT metabolized

Settings: human gut metagenome, 24 h, 2 µM
Remark: another data set of the same source

Bacterial Biotransformation | SMILES
Compound NOT metabolized | O=c1n(CCCN2CCN(c3cccc(Cl)c3)CC2)nc2ccccn12 [TRAZODONE]
Compound metabolized | O=C(O)CCc1nc(-c2ccccc2)c(-c2ccccc2)o1 [OXAPROZIN]
Compound metabolized | CCOC(=O)[C@H](CCc1ccccc1)N[C@@H](C)C(=O)N1[C@H](C(=O)O)C[C@@H]2CCC[C@@H]21

SMILES | Bacterial Biotransformation
CN1CCN(C2=Nc3cc(Cl)ccc3Nc3ccccc32)CC1 [CLOZAPINE] | Compound NOT metabolized

Assay: as §1, with “Z-016” for “Z-030”, “ERS12561815” for “ERS12561829”
Settings: 2 µM

Bacterial Biotransformation | SMILES
Compound NOT metabolized | O=c1n(CCCN2CCN(c3cccc(Cl)c3)CC2)nc2ccccn12 [TRAZODONE]
Compound metabolized | O=C(O)CCc1nc(-c2ccccc2)c(-c2ccccc2)o1 [OXAPROZIN]
Compound metabolized | CCOC(=O)[C@H](CCc1ccccc1)N[C@@H](C)C(=O)N1[C@H](C(=O)O)C[C@@H]2CCC[C@@H]21

SMILES | Bacterial Biotransformation
CN1CCN(C2=Nc3cc(Cl)ccc3Nc3ccccc32)CC1 [CLOZAPINE] | Compound NOT metabolized

Settings: human gut metagenome, 24 h, 2 µM
Remark: another data set of the same source

Bacterial Biotransformation | SMILES
Compound metabolized | O=c1n(CCCN2CCN(c3cccc(Cl)c3)CC2)nc2ccccn12 [TRAZODONE]
Compound metabolized | O=C(O)CCc1nc(-c2ccccc2)c(-c2ccccc2)o1 [OXAPROZIN]
Compound metabolized | CCOC(=O)[C@H](CCc1ccccc1)N[C@@H](C)C(=O)N1[C@H](C(=O)O)C[C@@H]2CCC[C@@H]21

SMILES | Bacterial Biotransformation
CN1CCN(C2=Nc3cc(Cl)ccc3Nc3ccccc32)CC1 [CLOZAPINE] | Compound metabolized

Settings: human gut metagenome, 24 h, 2 µM
Remark: another data set of the same source

Bacterial Biotransformation | SMILES
Compound NOT metabolized | O=c1n(CCCN2CCN(c3cccc(Cl)c3)CC2)nc2ccccn12 [TRAZODONE]
Compound metabolized | O=C(O)CCc1nc(-c2ccccc2)c(-c2ccccc2)o1 [OXAPROZIN]
Compound metabolized | CCOC(=O)[C@H](CCc1ccccc1)N[C@@H](C)C(=O)N1[C@H](C(=O)O)C[C@@H]2CCC[C@@H]21

SMILES | Bacterial Biotransformation
CN1CCN(C2=Nc3cc(Cl)ccc3Nc3ccccc32)CC1 [CLOZAPINE] | Compound metabolized

Settings: human gut metagenome, 24 h, 2 µM
Remark: another data set of the same source

Bacterial Biotransformation | SMILES
Compound NOT metabolized | O=c1n(CCCN2CCN(c3cccc(Cl)c3)CC2)nc2ccccn12 [TRAZODONE]
Compound metabolized | O=C(O)CCc1nc(-c2ccccc2)c(-c2ccccc2)o1 [OXAPROZIN]
Compound metabolized | CCOC(=O)[C@H](CCc1ccccc1)N[C@@H](C)C(=O)N1[C@H](C(=O)O)C[C@@H]2CCC[C@@H]21

SMILES | Bacterial Biotransformation
CN1CCN(C2=Nc3cc(Cl)ccc3Nc3ccccc32)CC1 [CLOZAPINE] | Compound NOT metabolized

Assay: as §1, with “Z-014” for “Z-030”, “rat” for “mouse”, “ERS12561814” for “ERS12561829”
Settings: 2 µM

Bacterial Biotransformation | SMILES
Compound NOT metabolized | O=c1n(CCCN2CCN(c3cccc(Cl)c3)CC2)nc2ccccn12 [TRAZODONE]
Compound NOT metabolized | O=C(O)CCc1nc(-c2ccccc2)c(-c2ccccc2)o1 [OXAPROZIN]
Compound NOT metabolized | CCOC(=O)[C@H](CCc1ccccc1)N[C@@H](C)C(=O)N1[C@H](C(=O)O)C[C@@H]2CCC[C@@H]21

SMILES | Bacterial Biotransformation
CN1CCN(C2=Nc3cc(Cl)ccc3Nc3ccccc32)CC1 [CLOZAPINE] | Compound NOT metabolized

Settings: human gut metagenome, 24 h, 2 µM
Remark: another data set of the same source

Bacterial Biotransformation | SMILES
Compound metabolized | O=c1n(CCCN2CCN(c3cccc(Cl)c3)CC2)nc2ccccn12 [TRAZODONE]
Compound metabolized | O=C(O)CCc1nc(-c2ccccc2)c(-c2ccccc2)o1 [OXAPROZIN]
Compound metabolized | CCOC(=O)[C@H](CCc1ccccc1)N[C@@H](C)C(=O)N1[C@H](C(=O)O)C[C@@H]2CCC[C@@H]21

SMILES | Bacterial Biotransformation
CN1CCN(C2=Nc3cc(Cl)ccc3Nc3ccccc32)CC1 [CLOZAPINE] | Compound NOT metabolized

Settings: human gut metagenome, 24 h, 2 µM
Remark: another data set of the same source

Bacterial Biotransformation | SMILES
Compound NOT metabolized | O=c1n(CCCN2CCN(c3cccc(Cl)c3)CC2)nc2ccccn12 [TRAZODONE]
Compound metabolized | O=C(O)CCc1nc(-c2ccccc2)c(-c2ccccc2)o1 [OXAPROZIN]
Compound metabolized | CCOC(=O)[C@H](CCc1ccccc1)N[C@@H](C)C(=O)N1[C@H](C(=O)O)C[C@@H]2CCC[C@@H]21

SMILES | Bacterial Biotransformation
CN1CCN(C2=Nc3cc(Cl)ccc3Nc3ccccc32)CC1 [CLOZAPINE] | Compound metabolized

Assay: as §1, with “WLS-310” for “Z-030”, “human” for “mouse”, “ERS12561785” for “ERS12561829”
Settings: 2 µM

Bacterial Biotransformation | SMILES
Compound NOT metabolized | O=c1n(CCCN2CCN(c3cccc(Cl)c3)CC2)nc2ccccn12 [TRAZODONE]
Compound metabolized | O=C(O)CCc1nc(-c2ccccc2)c(-c2ccccc2)o1 [OXAPROZIN]
Compound metabolized | CCOC(=O)[C@H](CCc1ccccc1)N[C@@H](C)C(=O)N1[C@H](C(=O)O)C[C@@H]2CCC[C@@H]21

SMILES | Bacterial Biotransformation
CN1CCN(C2=Nc3cc(Cl)ccc3Nc3ccccc32)CC1 [CLOZAPINE] | Compound metabolized

Assay: as §1, with “Z-019” for “Z-030”, “rat” for “mouse”, “ERS12561818” for “ERS12561829”
Settings: 2 µM

Bacterial Biotransformation | SMILES
Compound NOT metabolized | O=c1n(CCCN2CCN(c3cccc(Cl)c3)CC2)nc2ccccn12 [TRAZODONE]
Compound NOT metabolized | O=C(O)CCc1nc(-c2ccccc2)c(-c2ccccc2)o1 [OXAPROZIN]
Compound NOT metabolized | CCOC(=O)[C@H](CCc1ccccc1)N[C@@H](C)C(=O)N1[C@H](C(=O)O)C[C@@H]2CCC[C@@H]21

SMILES | Bacterial Biotransformation
CN1CCN(C2=Nc3cc(Cl)ccc3Nc3ccccc32)CC1 [CLOZAPINE] | Compound NOT metabolized

Assay: as §1, with “Z-023” for “Z-030”, “to” for “to mouse gut”, “ERS12561822” for “ERS12561829”
Settings: 2 µM

Bacterial Biotransformation | SMILES
Compound NOT metabolized | O=c1n(CCCN2CCN(c3cccc(Cl)c3)CC2)nc2ccccn12 [TRAZODONE]
Compound metabolized | O=C(O)CCc1nc(-c2ccccc2)c(-c2ccccc2)o1 [OXAPROZIN]
Compound metabolized | CCOC(=O)[C@H](CCc1ccccc1)N[C@@H](C)C(=O)N1[C@H](C(=O)O)C[C@@H]2CCC[C@@H]21

SMILES | Bacterial Biotransformation
CN1CCN(C2=Nc3cc(Cl)ccc3Nc3ccccc32)CC1 [CLOZAPINE] | Compound metabolized

Settings: human gut metagenome, 24 h, 2 µM
Remark: another data set of the same source

Bacterial Biotransformation | SMILES
Compound NOT metabolized | O=c1n(CCCN2CCN(c3cccc(Cl)c3)CC2)nc2ccccn12 [TRAZODONE]
Compound metabolized | O=C(O)CCc1nc(-c2ccccc2)c(-c2ccccc2)o1 [OXAPROZIN]
Compound metabolized | CCOC(=O)[C@H](CCc1ccccc1)N[C@@H](C)C(=O)N1[C@H](C(=O)O)C[C@@H]2CCC[C@@H]21

SMILES | Bacterial Biotransformation
CN1CCN(C2=Nc3cc(Cl)ccc3Nc3ccccc32)CC1 [CLOZAPINE] | Compound metabolized

Assay: as §1, with “Z-025” for “Z-030”, “rabbit” for “mouse”, “ERS12561824” for “ERS12561829”
Settings: 2 µM

Bacterial Biotransformation | SMILES
Compound NOT metabolized | O=c1n(CCCN2CCN(c3cccc(Cl)c3)CC2)nc2ccccn12 [TRAZODONE]
Compound metabolized | O=C(O)CCc1nc(-c2ccccc2)c(-c2ccccc2)o1 [OXAPROZIN]
Compound NOT metabolized | CCOC(=O)[C@H](CCc1ccccc1)N[C@@H](C)C(=O)N1[C@H](C(=O)O)C[C@@H]2CCC[C@@H]21

SMILES | Bacterial Biotransformation
CN1CCN(C2=Nc3cc(Cl)ccc3Nc3ccccc32)CC1 [CLOZAPINE] | Compound NOT metabolized

Assay: as §1, with “Z-018” for “Z-030”, “pig” for “mouse”, “ERS12561817” for “ERS12561829”
Settings: 2 µM

Bacterial Biotransformation | SMILES
Compound NOT metabolized | O=c1n(CCCN2CCN(c3cccc(Cl)c3)CC2)nc2ccccn12 [TRAZODONE]
Compound metabolized | O=C(O)CCc1nc(-c2ccccc2)c(-c2ccccc2)o1 [OXAPROZIN]
Compound metabolized | CCOC(=O)[C@H](CCc1ccccc1)N[C@@H](C)C(=O)N1[C@H](C(=O)O)C[C@@H]2CCC[C@@H]21

SMILES | Bacterial Biotransformation
CN1CCN(C2=Nc3cc(Cl)ccc3Nc3ccccc32)CC1 [CLOZAPINE] | Compound NOT metabolized

Assay: as §1, with “WLS-086” for “Z-030”, “human” for “mouse”, “ERS12561752” for “ERS12561829”
Settings: 2 µM

Bacterial Biotransformation | SMILES
Compound metabolized | O=c1n(CCCN2CCN(c3cccc(Cl)c3)CC2)nc2ccccn12 [TRAZODONE]
Compound metabolized | O=C(O)CCc1nc(-c2ccccc2)c(-c2ccccc2)o1 [OXAPROZIN]
Compound metabolized | CCOC(=O)[C@H](CCc1ccccc1)N[C@@H](C)C(=O)N1[C@H](C(=O)O)C[C@@H]2CCC[C@@H]21

SMILES | Bacterial Biotransformation
CN1CCN(C2=Nc3cc(Cl)ccc3Nc3ccccc32)CC1 [CLOZAPINE] | Compound metabolized

— ChEMBL document CHEMBL5724914, “Linking interpersonal differences in gut microbiota composition and drug biotransformation activity” (2024)
